pEC50: −log10 of the molar value. Structures can show the parent of a compound that is named as a salt. Where two headings read alike, the source gives them in different places.
Key:
[1] = test system: primary human mesenchymal stem cells (MSCs); test: Osteoinductive (OI) alkaline phosphatase (ALP) assay, dose response, ALP normalised to DNA; assay type: cell-based; conditions: primary human MSCs, exposure over 6 days, read-out: OI Assay (ALP) EC50
From the text: (§1) Samples from several classes of small molecule compounds including, corticosteroids, glucocorticoids, oxysterols, compounds that impact the HMG coA reductase pathway and compounds that upregulate intracellular cAMP were screened for osteoinductive potential with an alkaline phosphatase (ALP) assay in primary human mesenchymal stem cells (MSCs). Sample compounds were screened over a dose range in a multiwell plate format using DNA to normalize the ALP response as a function of cell number. These dose response curves allowed for the determination of an EC50 to measure relative potency of the osteogenic response between compounds. FIG. 1 is a representative dose response curve for two of the corticosteroid compounds tested, clobetasol propionate and dexamethasone. In addition to the functional analysis, certain identified compounds were run through an in vitro L929 cytotoxicity assay to determine a CC50.

[2] = In vitro L929 cytotoxicity assay (CTG); assay type: cell-based; conditions: mouse, L929 cells; read-out: Cytotox (CTG) CC50
From the text: as §1

[3] = Homo sapiens, Mesenchymal stem cells, 144 h

Row | SMILES | pEC50 [1, 3] | pEC50 [1] | also measured
1 | O=C1C=C2C(=CCOC2O)O1 (stereo not drawn) [Patulin] |  |  | pEC50 ([1]; Mesenchymal stem cells, 144 h): < 5.00
2 | CC(C)Cn1c(=O)n(C)c(=O)c2[nH]cnc21 [3-isobutyl 1-methylxanthine (IBMX), 3-isobutyl 1-methylxanthine] | < 5.00 |  | 
3 | CC(=O)OCC(=O)[C@@]1(OC(C)=O)[C@@H](C)C[C@H]2[C@@H]3C[C@H](F)C4=CC(=O)C=C[C@]4(C)[C@@]3(F)[C@@H](O)C[C@@]21C [Diflorasone Diacetate] | 8.86 |  | 
4 | O=CN(O)CCCP(=O)(O)O [Fosmidomycin] | < 5.00 |  | 
5 | C[C@H](CCCC(C)(C)O)[C@H]1CC[C@H]2[C@@H]3CC=C4C[C@@H](O)CC[C@]4(C)[C@H]3CC[C@]12C [25-hydroxy-cholestero] |  | < 4.92 | 
6 | CC(=O)CCCCn1c(=O)c2c(ncn2C)n(C)c1=O [Pentoxifylline (Trental), Pentoxifylline] | < 5.00 |  | 
7 | CC1(C)O[C@@H]2C[C@H]3[C@@H]4C[C@H](F)C5=CC(=O)CC[C@]5(C)[C@H]4[C@@H](O)C[C@]3(C)[C@]2(C(=O)CO)O1 [Flurandrenolide] | 8.81 |  | 
8 | C[C@H]1C[C@H]2[C@@H]3CCC4=CC(=O)C=C[C@]4(C)[C@@]3(F)[C@@H](O)C[C@]2(C)[C@@]1(O)C(=O)CO [Betamethasone] | 8.71 |  | 
9 | C[C@]12CCC(=O)C=C1CC[C@@H]1[C@@H]2[C@@H](O)C[C@]2(C=O)[C@@H](C(=O)CO)CC[C@@H]12 [Aldosterone 98%, Aldosterone] | 6.54 |  | 
10 | CCCC(=O)Nc1ncnc2c1ncn2[C@@H]1O[C@@H]2COP(=O)(O)O[C@H]2[C@H]1OC(=O)CCC [dbcAMP] |  | < 5.00 | 
11 | C[C@]12C=CC(=O)C=C1CC[C@H]1[C@@H]3C[C@@H](O)[C@](O)(C(=O)CO)[C@@]3(C)C[C@H](O)[C@@]12F [Triamcinolone] | 8.38 |  | 
12 | CCN(CC)CCOc1ccc(C(O)(Cc2ccc(Cl)cc2)c2ccc(C)cc2)cc1 (stereo not drawn) [Triparanol] | < 5.00 |  | 
13 | CC[C@H](CC[C@@H](C)[C@H]1CC[C@H]2[C@@H]3CC=C4C[C@@H](O)CC[C@]4(C)[C@H]3CC[C@]12C)C(C)C [β-Sitosterol] |  | < 4.92 | 
14 | CC(=O)OCC(=O)[C@@]1(O)CC[C@H]2[C@@H]3CCC4=CC(=O)CC[C@]4(C)[C@@]3(F)[C@@H](O)C[C@@]21C [Fludrocotisone actetate] |  | 8.39 | 
15 | OCCN(CCO)c1nc(N2CCCCC2)c2nc(N(CCO)CCO)nc(N3CCCCC3)c2n1 [Dipyridamole] |  |  | CC50 [2]: > 30 µM
16 | O=C(O)c1ccc(CCN2CCN(C/C=C/c3ccc(Cl)cc3)CC2)cc1 [bm15766 sulfate] |  | < 5.00 | 
17 | CC(=O)OCC(=O)[C@@]12N=C(C)O[C@@H]1C[C@H]1[C@@H]3CCC4=CC(=O)C=C[C@]4(C)[C@H]3[C@@H](O)C[C@@]12C [Deflazacort] | 8.01 |  | 
18 | COC(=O)[C@H](CC(C)C)NC(=O)c1ccc(NC[C@@H](N)CS)cc1-c1ccccc1 [GGTI-286] |  | < 4.92 | 
19 | CC(C)CC[C@H](O)[C@@H](C)[C@H]1CC[C@H]2[C@@H]3CC=C4C[C@@H](O)CC[C@]4(C)[C@H]3CC[C@]12C [22(S)-hydroxy-cholesterol] | < 4.92 |  | 
20 | COC(=O)[C@H](CCSC)NC(=O)c1ccc(NC[C@@H](N)CS)cc1-c1ccccc1 [FTI-277 trifluoroacetate salt] |  | < 4.92 | 
21 | CCCn1cnc2c1c(=O)n(CCCCC(C)=O)c(=O)n2C [Propentofylline] | < 5.00 |  | 
22 | CC(C)CC[C@@H](O)[C@@H](C)[C@H]1CC[C@H]2[C@@H]3CC=C4C[C@@H](O)CC[C@]4(C)[C@H]3CC[C@]12C [22(r)-hydroxy-cholesterol] | 6.11 |  | CC50 [2]: > 12 µM
23 | CC(C)CCC[C@@H](C)[C@H]1CC[C@H]2[C@@H]3CC=C4C[C@@H](O)CC[C@]4(CO)[C@H]3CC[C@]12C [19-hydroxy-cholesterol] | < 4.92 |  | 
